{
  "source": "patent US20250170148A1",
  "about": "“NEUROACTIVE STEROIDS FOR TREATMENT OF GASTROINTESTINAL DISEASES OR CONDITIONS” (Sage Therapeutics, Inc., priority 2022, published 2025)",
  "origin": "cited, not measured here",
  "key": {"[1]": {"tested_on": "patients with major depressive disorder", "conditions": "meta-analysis; for rate of gastrointestinal adverse reactions compared to placebo: 15 most commonly used antidepressants in MDD; for gastrointestinal tolerability among antidepressants: patients with MDD"}},
  "note": "“Also recorded” adds a separate entry of the source. Where two headings read alike, the source gives them in different places.",
  "data": [
    {"molecule": "COc1ccc2cccc(CCNC(C)=O)c2c1", "note": "[agomelatine]", "values": [
      {"measurement": "rate of gastrointestinal adverse reactions compared to placebo", "setting": "[1]", "result": "higher rates of gastrointestinal adverse reactions compared to placebo"}
    ]},
    {"molecule": "CC(NC(C)(C)C)C(=O)c1cccc(Cl)c1", "note": "(centres unmarked) [bupropion]", "values": [
      {"measurement": "rate of gastrointestinal adverse reactions compared to placebo", "setting": "[1]", "result": "higher rates of gastrointestinal adverse reactions compared to placebo"}
    ]},
    {"molecule": "CN(C)CCCC1(c2ccc(F)cc2)OCc2cc(C#N)ccc21", "note": "(centres unmarked) [citalopram]", "values": [
      {"measurement": "rate of gastrointestinal adverse reactions compared to placebo", "setting": "[1]", "result": "higher rates of gastrointestinal adverse reactions compared to placebo"}
    ]},
    {"molecule": "CN(C)CC(c1ccc(O)cc1)C1(O)CCCCC1", "note": "(centres unmarked) [desvenlafaxine]", "values": [
      {"measurement": "rate of gastrointestinal adverse reactions compared to placebo", "setting": "[1]", "result": "higher rates of gastrointestinal adverse reactions compared to placebo"}
    ]},
    {"molecule": "CNCC[C@H](Oc1cccc2ccccc12)c1cccs1", "note": "[duloxetine]", "values": [
      {"measurement": "rate of gastrointestinal adverse reactions compared to placebo", "setting": "[1]", "result": "higher rates of gastrointestinal adverse reactions compared to placebo"}
    ]},
    {"molecule": "CN(C)CCC[C@@]1(c2ccc(F)cc2)OCc2cc(C#N)ccc21", "note": "[escitalopram]", "values": [
      {"measurement": "rate of gastrointestinal adverse reactions compared to placebo", "setting": "[1]", "result": "higher rates of gastrointestinal adverse reactions compared to placebo"},
      {"measurement": "gastrointestinal tolerability among antidepressants", "setting": "[1]", "result": "least tolerated antidepressants on the gastrointestinal tract"},
      {"measurement": "gastrointestinal tolerability among antidepressants", "setting": "[1]; listed as Escitalopram", "result": "least tolerated antidepressants on the GI tract"}
    ]},
    {"molecule": "CNCCC(Oc1ccc(C(F)(F)F)cc1)c1ccccc1", "note": "(centres unmarked) [fluoxetine]", "values": [
      {"measurement": "rate of gastrointestinal adverse reactions compared to placebo", "setting": "[1]", "result": "higher rates of gastrointestinal adverse reactions compared to placebo"}
    ]},
    {"molecule": "COCCCC/C(=N\\OCCN)c1ccc(C(F)(F)F)cc1", "note": "[fluvoxamine]", "values": [
      {"measurement": "rate of gastrointestinal adverse reactions compared to placebo", "setting": "[1]", "result": "higher rates of gastrointestinal adverse reactions compared to placebo"}
    ]},
    {"molecule": "CCN(CC)C(=O)[C@@]1(c2ccccc2)C[C@H]1CN", "note": "[levomilnacipran]", "values": [
      {"measurement": "rate of gastrointestinal adverse reactions compared to placebo", "setting": "[1]", "result": "higher rates of gastrointestinal adverse reactions compared to placebo"}
    ]},
    {"molecule": "CN1CCN2c3ncccc3Cc3ccccc3C2C1", "note": "(centres unmarked) [mirtazapine]", "values": [
      {"measurement": "rate of gastrointestinal adverse reactions compared to placebo", "setting": "[1]", "result": "higher rates of gastrointestinal adverse reactions compared to placebo"}
    ]},
    {"molecule": "Fc1ccc([C@@H]2CCNC[C@H]2COc2ccc3c(c2)OCO3)cc1", "note": "[paroxetine]", "values": [
      {"measurement": "rate of gastrointestinal adverse reactions compared to placebo", "setting": "[1]", "result": "higher rates of gastrointestinal adverse reactions compared to placebo"}
    ]},
    {"molecule": "CCOc1ccccc1OC(c1ccccc1)C1CNCCO1", "note": "(centres unmarked) [reboxetine]", "values": [
      {"measurement": "rate of gastrointestinal adverse reactions compared to placebo", "setting": "[1]", "result": "higher rates of gastrointestinal adverse reactions compared to placebo"}
    ]},
    {"molecule": "CN[C@H]1CC[C@@H](c2ccc(Cl)c(Cl)c2)c2ccccc21", "note": "[sertraline]", "values": [
      {"measurement": "rate of gastrointestinal adverse reactions compared to placebo", "setting": "[1]", "result": "higher rates of gastrointestinal adverse reactions compared to placebo"},
      {"measurement": "gastrointestinal tolerability among antidepressants", "setting": "[1]", "result": "least tolerated antidepressants on the gastrointestinal tract; also recorded: least tolerated antidepressants on the GI tract"},
      {"measurement": "incidence of diarrhea", "setting": "compared to other SSRIs and venlafaxine", "result": "higher incidence of diarrhea"}
    ]},
    {"molecule": "COc1ccc(C(CN(C)C)C2(O)CCCCC2)cc1", "note": "(centres unmarked) [venlafaxine]", "values": [
      {"measurement": "rate of gastrointestinal adverse reactions compared to placebo", "setting": "[1]", "result": "higher rates of gastrointestinal adverse reactions compared to placebo"},
      {"measurement": "rates of nausea and vomiting", "setting": "compared to SSRIs and duloxetine", "result": "higher rates of nausea and vomiting"}
    ]},
    {"molecule": "Cc1ccc(Sc2ccccc2N2CCNCC2)c(C)c1", "note": "[vortioxetine]", "values": [
      {"measurement": "rate of gastrointestinal adverse reactions compared to placebo", "setting": "[1]", "result": "higher rates of gastrointestinal adverse reactions compared to placebo"}
    ]}
  ]
}
